From US6156493A, “Modified-affinity streptavidin” (priority 1997, dated 2000)
Read-outs that look alike come from different tables or passages of the source.

Experiments:
[1] = biological target: T1, Streptomyces avidinii core streptavidin variant W108F (Streptomyces avidinii, UniProt P22629, W132F); assay: Equilibrium biotin-binding enthalpy and heat capacity (isothermal titrating calorimetry)
T1 construct: core streptavidin, defined as residues 13-139 of the naturally occurring protein; made in house
Protocol: (§1) The equilbrium binding enthalpies, ΔH°, and the heat capacities, ΔCp°, have also been […] with the streptavidin mutants (Table II). Heat capacities were determined as generally described in Murphy et al., Proteins: Structure, Function and Genetics 15:113-120 (1993), incorporated herein by reference.
(§2) The determination of ΔGr .noteq. by transition state analysis and the independent estimation of ΔG^0 from affinity measurements allows the drawing of free energy profiles for WT streptavidin and the Trp to Phe mutants. Similarly, the enthalpic energy profiles can be drawn from the equilibrium biotin-binding enthalpy (ΔH^0), independently determined by isothermal titrating calorimetry measurements, and ΔHr .noteq. available from transition state analysis of the temperature-dependent protein-ligand dissociation kinetics. The virtue of this analysis is that is allows the free energy barriers responsible for the off-rates of the different mutants to be delineated in terms of alterations in the transition state and/or the biotin-bound ground state, and further partitions these free energy changes into enthalpic and entropic components. Upon comparison with the results for WT streptavidin, the thermodynamic effects of mutating specific residues can then be mapped, providing considerable insight into the structure and energetics of the transition state.

[2] = biological target: T2, Streptomyces avidinii core streptavidin variant W120A (Streptomyces avidinii, UniProt P22629, W144A); assay: as above
T2 construct: core streptavidin, defined as residues 13-139 of the naturally occurring protein; made in house
Protocol: as §1, §2

[3] = biological target: T3, Streptomyces avidinii core streptavidin, wild type (WT) (Streptomyces avidinii, UniProt P22629); assay: as above
T3 construct: core streptavidin, defined as residues 13-139 of the naturally occurring protein; made in house
Protocol: as §1, §2

[4] = biological target: T4, Streptomyces avidinii core streptavidin variant W79A (Streptomyces avidinii, UniProt P22629, W103A); assay: as above
T4 construct: core streptavidin, defined as residues 13-139 of the naturally occurring protein; made in house
Protocol: as §1, §2

[5] = biological target: T5, Streptomyces avidinii core streptavidin variant W120F (Streptomyces avidinii, UniProt P22629, W144F); assay: as above
T5 construct: core streptavidin, defined as residues 13-139 of the naturally occurring protein; made in house
Protocol: as §1, §2

[6] = biological target: T6, Streptomyces avidinii core streptavidin variant W79F (Streptomyces avidinii, UniProt P22629, W103F); assay: as above
T6 construct: core streptavidin, defined as residues 13-139 of the naturally occurring protein; made in house
Protocol: as §1, §2

[7] = biological target: T3, Streptomyces avidinii core streptavidin, wild type (WT); assay: Equilibrium binding of 3H-biotin (ultrafiltration spin-column assay); settings: tight-binding limit; 0.2 nM total biotin; isotherm identical to W120F
Protocol: (§3) The free ligand was then separated from the protein-bound ligand by either Microcon-30 or Centriprep-30 centrigual ultrafiltration devices (Amicon, Inc.). Typically, 0.1-1 ml of the free ligand solution or the protein-ligand mixture was added to 18 ml liquid scintillation cocktail (Ecolume, ICN Biomedicals, Inc., Costa Mesa, Calif.) and assayed on a liquid scintillation counter (Beckman Instruments, Inc., Fullerton, Calif.). The Ka was determined from a nonlinear curve fit of the fraction of protein-bound ligand versus the free protein concentration.
(§4) This assay provides a useful estimate of the Ka when the affinities lie between 10^6 -10^9.

[8] = biological target: T5, Streptomyces avidinii core streptavidin variant W120F; settings: tight-binding limit; 0.2 nM total biotin
Protocol: as §3, §4

[9] = biological target: T1, Streptomyces avidinii core streptavidin variant W108F; assay: Streptavidin-biotin dissociation rate (3H biotin, cold biotin chase, ultrafiltration) and transition state analysis; type: binding
Protocol: (§5) Fifty μl of the filtrate were mixed with 10 ml scintillation cocktail in triplicate and assayed for radioactivity in a liquid scintillation counter (LS-7000, Beckman Instruments, Fullerton, Calif.). […] Standard deviations were determined based on three independent measurements.

[10] = biological target: T3, Streptomyces avidinii core streptavidin, wild type (WT); assay: as above; type: binding
Protocol: as §5

[11] = biological target: T5, Streptomyces avidinii core streptavidin variant W120F; assay: as above; type: binding
Protocol: as §5

[12] = biological target: T6, Streptomyces avidinii core streptavidin variant W79F; assay: as above; type: binding
Protocol: as §5

[13] = biological target: T7, Streptomyces avidinii core streptavidin (residues 13-139), wild type (WT) (Streptomyces avidinii, UniProt P22629); assay: ELISA concentration-dependent binding to biotin/BSA or iminobiotin/BSA; settings: ligand iminobiotin/BSA, EC50 is protein concentration, read-out: Absolute EC50 (converted)
T7 construct: core streptavidin, defined as residues 13-139 of the naturally occurring protein; made in house
Protocol: ELISA Assays. […] 2-Iminobiotin conjugated to bovine serum albumin (iminobiotin/BSA) was synthesized by reacting a twenty-fold molar excess of 2-iminobiotin N-hydroxysuccinimide ester (sigma) with 100 mg BSA in 100 mM NaHCO3, pH 8.3 for 12 hr at 4° C. with end-over-end stirring, followed by dialysis and gel filtration (G-25, Pharmacia) to separate iminobiotin/BSA from unreacted 2-iminobiotin. […] The next day the microwell plates were incubated with 200 μl per well of blocking buffer at pH 8.0 or pH 10.0 (50 mM sodium phosphate, pH 8.0 or 50 mM Na2 CO3, pH 10.0/100 mM NaCl/0.5% (w/v) BSA/0.05% (v/v) Tween-20) for at least 2 hr at room temperature and then incubated in ten-fold serial dilutions of 100 μg/ml WT streptavidin or mutants (100 μl/well) for 2 hr at room temperature, rinsed with blocking buffer at pH 8.0 or pH 10.0 (200 μl/well), and incubated for 1 hr at room temperature in 2×10^4 dilution of primary antistreptavidin antibodies (Sigma) in pH 8.0 or pH 10.0 blocking buffer (100 μl/well). […]
where a, b, c, and d are the adjustable fitting parameters; x=streptavidin concentration (μg/ml); y=absorbance at 405 nm. […]

[14] = biological target: T1, Streptomyces avidinii core streptavidin variant W108F; assay: ELISA concentration-dependent binding to iminobiotin/BSA; settings: for EC50: Absolute EC50, ligand iminobiotin/BSA
Protocol: (§6) ELISA Assays. […] 2-Iminobiotin conjugated to bovine serum albumin (iminobiotin/BSA) was synthesized by reacting a twenty-fold molar excess of 2-iminobiotin N-hydroxysuccinimide ester (sigma) with 100 mg BSA in 100 mM NaHCO3, pH 8.3 for 12 hr at 4° C. with end-over-end stirring, followed by dialysis and gel filtration (G-25, Pharmacia) to separate iminobiotin/BSA from unreacted 2-iminobiotin. […] The next day the microwell plates were incubated with 200 μl per well of blocking buffer at pH 8.0 or pH 10.0 (50 mM sodium phosphate, pH 8.0 or 50 mM Na2 CO3, pH 10.0/100 mM NaCl/0.5% (w/v) BSA/0.05% (v/v) Tween-20) for at least 2 hr at room temperature and then incubated in ten-fold serial dilutions of 100 μg/ml WT streptavidin or mutants (100 μl/well) for 2 hr at room temperature, rinsed with blocking buffer at pH 8.0 or pH 10.0 (200 μl/well), and incubated for 1 hr at room temperature in 2×10^4 dilution of primary antistreptavidin antibodies (Sigma) in pH 8.0 or pH 10.0 blocking buffer (100 μl/well). The plates were rinsed three times with 200 μl per well blocking buffer at the assay pH, incubated with secondary anti-IgG/alkaline phosphatase conjugate (Sigma) for 1 hr at room temperature, rinsed three times with blocking buffer, and assayed for alkaline phosphatase activity at pH 10.0. Every plate assayed had triplicates for each protein concentration. The data were processed on Mathcad (Mathworks) to determine the equivalent bulk concentration at 50% saturation of binding (EC50) values using a published 4-parameter nonlinear fitting algorithm shown below (Jin et al., J. Mol. Biol. 226: 851-865 (1992)):
(§7) y=a+(d-a)/[1+exp (b(c-x))]
(§8) where a, b, c, and d are the adjustable fitting parameters; x=streptavidin concentration (μg/ml); y=absorbance at 405 nm. Absolute EC50 in μg ml^-1 are given by the value of the parameter c for the best fit of the fitting function to the binding isotherm. Relative EC50 values reported in Table I are EC50 (mutant)/EC50 (WT streptavidin).

[15] = biological target: Streptomyces avidinii core streptavidin Trp→Ala mutants (WxA: W79A, W108A, W120A); assay: as above; settings: ligand iminobiotin/BSA; pH 8/10; lower bound
Protocol: as §6, §7, §8

[16] = biological target: T5, Streptomyces avidinii core streptavidin variant W120F; assay: as above; settings: Absolute EC50, ligand iminobiotin/BSA
Protocol: as §6, §7, §8

[17] = biological target: T6, Streptomyces avidinii core streptavidin variant W79F; assay: as above; settings: for EC50: Absolute EC50, ligand iminobiotin/BSA
Protocol: as §6, §7, §8

[18] = biological target: Streptomyces avidinii streptavidin, wild type (WT); assay: Known Ka of ligand-WT streptavidin partners used for the analysis; type: binding; settings: pH 10.0; estimated from experimentally-determined value for iminobiotin/avidin
Source text: Streptavidin, a protein produced by Streptomyces avidinii, forms a very strong and specific non-covalent complex with the water soluble vitamin biotin. […] See, Green, Adv. Prot. Chem. 29: 85-143 (1975).
Order of magnitude determinations of ΔKa for the mutants were estimated from the EC50, given the known Ka 's of some of these ligand-protein partners. […] These numbers are further supported by the independently determined biotin-binding affinities of the W79A and W120A mutants, which agree well with the ELISA estimates.

[19] = biological target: T2, Streptomyces avidinii core streptavidin variant W120A; assay: Affinity of W120A for 2-iminobiotin; type: binding
[20] = equilibrium biotin binding enthalpy
[21] = heat capacity of biotin binding
[22] = biotin-bound ground state relative to WT
[23] = activation barrier of biotin dissociation
[24] = activation enthalpy of biotin dissociation, transition state analysis

T3 sequence (P22629 37-163): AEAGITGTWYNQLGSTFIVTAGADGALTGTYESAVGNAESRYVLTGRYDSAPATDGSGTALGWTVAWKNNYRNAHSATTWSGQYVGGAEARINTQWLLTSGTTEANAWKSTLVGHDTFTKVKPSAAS
T6 sequence (P22629 37-163 W103F): as the sequence (P22629 37-163) above, with W67F counted along it
T5 sequence (P22629 37-163 W144F): as the sequence (P22629 37-163) above, with W108F counted along it
T1 sequence (P22629 37-163 W132F): as the sequence (P22629 37-163) above, with W96F counted along it
T2 sequence (P22629 37-163 W144A): as the sequence (P22629 37-163) above, with W108A counted along it
T7 sequence (P22629 37-163): as the sequence (P22629 37-163) above
T4 sequence (P22629 37-163 W103A): as the sequence (P22629 37-163) above, with W67A counted along it

In the case of `O=C(O)CCCC[C@@H]1SC[C@@H]2NC(=O)N[C@@H]21` [biotin], the “ΔH°” value [1, 20] is reported as -23.5 kcal/mol, the “ΔCp°” value [1, 21] is reported as -386 cal/molK and the “ΔH°” value [2, 20] is reported as -12.8 kcal/mol. For the same molecule, the “ΔCp°” value [2, 21] was -272 cal/molK, the “ΔH°” value [3, 20] was -24.5 kcal/mol and the “ΔCp°” value [3, 21] was -345 cal/molK. For the same molecule, the “ΔH°” value [4, 20] was -18.5 kcal/mol, the “ΔCp°” value [4, 21] was -357 cal/molK and the “TΔΔS° (entropy term)” value ([5]; biotin binding, relative to WT) was “+2.4 kcal mol^-1”. For the same molecule, the “ΔΔH°” value ([5]; biotin binding, relative to WT) was “+5.1 kcal mol^-1”, the “ΔΔG°” value [5, 22] was “+2.7 kcal mol^-1” and the “ΔH°” value [5, 20] was -19.4 kcal/mol. For the same molecule, the “ΔCp°” value [5, 21] was -303 cal/molK, the “TΔΔS°” value ([6]; biotin binding, relative to WT) was -2.4 kcal/mol and the “ΔΔH°” value ([6]; biotin binding, relative to WT) was -1.5 kcal/mol. The “ΔΔG°” value [6, 22] was “+0.9 kcal mol^-1”, the “ΔH°” value [6, 20] was -25.9 kcal/mol and the “ΔCp°” value [6, 21] was -266 cal/molK. The “Ka (biotin)” value [7] was > 10^9, the “Ka (biotin)” value [8] was > 10^9 and the “TΔSr≠” value ([9]; T = 298K, biotin dissociation) was 13.8 ± 0.9 kal mol^-1. The “ΔGr≠” value [9, 23] was 22.7 ± 1.3 kal mol^-1, the “ΔHr≠” value [9, 24] was 36.5 ± 0.9 kcal/mol and the “ΔΔGr≠ = ΔGr≠(mutant) - ΔGr≠(WT)” value ([9]; biotin dissociation) was -1.7 kal mol^-1. The “ΔGr≠ (activation barrier for biotin dissociation)” value [10] was 24.4 kcal/mol, the “TΔSr≠” value ([10]; T = 298K, biotin dissociation) was 7.6 ± 2.1 kal mol^-1 and the “ΔGr≠” value [10, 23] was 24.4 ± 2.4 kal mol^-1. The “t1/2 of biotin complex” value ([10]; biotin dissociation) was 35 h, the “ΔΔGr≠ = ΔGr≠(mutant) - ΔGr≠(WT)” value ([10]; biotin dissociation) was 0 kal mol^-1 and the “TΔSr≠” value ([11]; T = 298K, biotin dissociation) was 6.6 ± 1.0 kal mol^-1. For the same molecule, the “ΔGr≠” value [11, 23] was 21.9 ± 1.4 kal mol^-1, the “ΔΔGr≠ = ΔGr≠(mutant) - ΔGr≠(WT)” value ([11]; biotin dissociation) was -2.5 kal mol^-1 and the “TΔSr≠” value ([12]; T = 298K, biotin dissociation) was 11.6 ± 0.6 kal mol^-1. For the same molecule, the “ΔGr≠” value [12, 23] was 23.3 ± 0.8 kal mol^-1, the “ΔHr≠” value [12, 24] was 34.9 ± 0.6 kcal/mol and the “ΔΔGr≠ = ΔGr≠(mutant) - ΔGr≠(WT)” value ([12]; biotin dissociation) was -1.1 kal mol^-1.

`N=C1N[C@H]2[C@H](CS[C@H]2CCCCC(=O)O)N1` [2-iminobiotin] gave an EC50 ([13]; pH 8) of 0.189 µM, an EC50 ([13]; pH 10) of 0.214 µM and a Kd [14] of 9260 to 9350 µM. For the same molecule, the EC50 ([14]; pH 8) was 39.5 µM, the EC50 ([14]; pH 10) was 0.493 µM and the “Absolute EC50” value [15] was ≥ 100 µg/mL. It also gave an EC50 ([16]; pH 8) of 42.2 µM, an EC50 ([16]; pH 10) of 16.6 µM and a Kd [17] of 9260 to 9350 µM. The EC50 ([17]; pH 8) was 34 µM, the EC50 ([17]; pH 10) was 0.575 µM and the “Ka for iminobiotin/WT streptavidin” value [18] was 10^8 M^-1. For the same molecule, the “affinity for 2-iminobiotin” value [19] was < 10^3 M^-1.
